Measured values reported in ChEMBL document CHEMBL1201862, “PubChem BioAssay data set” (2004).
Active and inactive are the calls of the source.

Experiments:
Vero = test: Vero cell toxicity, dose response, cytotoxicity control, plate reader, cherry-pick samples (AID 687020); assay type: functional, cell-based; conditions: Chlorocebus sabaeus
Albumin = Albumin (Bos taurus, UniProt P02769); test: Counterscreen for inhibitors of T-cell receptor (TCR)-CD3 interaction: Fluorescence-based biochemical high throughput dose response assay to identify inhibitors of T-cell receptor (TCR)-CD3 interaction using a TAMRA-labeled BSA probe.; assay type: functional
Sequence of Albumin (P02769 whole entry, the tested form may be a part): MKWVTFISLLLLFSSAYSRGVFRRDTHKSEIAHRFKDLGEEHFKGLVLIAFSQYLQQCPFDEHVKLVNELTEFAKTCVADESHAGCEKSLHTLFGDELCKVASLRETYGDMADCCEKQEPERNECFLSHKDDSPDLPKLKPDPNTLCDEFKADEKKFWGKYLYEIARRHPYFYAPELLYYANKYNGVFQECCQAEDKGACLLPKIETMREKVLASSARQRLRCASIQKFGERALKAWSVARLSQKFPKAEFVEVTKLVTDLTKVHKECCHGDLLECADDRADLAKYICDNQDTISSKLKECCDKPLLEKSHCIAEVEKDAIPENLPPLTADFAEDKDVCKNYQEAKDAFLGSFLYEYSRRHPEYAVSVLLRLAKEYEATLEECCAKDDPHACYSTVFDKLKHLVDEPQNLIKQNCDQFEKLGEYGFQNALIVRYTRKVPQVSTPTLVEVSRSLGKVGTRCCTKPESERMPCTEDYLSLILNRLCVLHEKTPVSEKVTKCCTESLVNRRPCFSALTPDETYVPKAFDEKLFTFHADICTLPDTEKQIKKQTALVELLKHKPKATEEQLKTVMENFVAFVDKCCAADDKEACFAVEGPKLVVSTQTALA

[1] = target: T1, Hepatocyte nuclear factor 4-alpha (Homo sapiens, UniProt P41235); assay type: functional, cell-based;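 note: biochemical luminescence-based dose-response counterscreen measuring inhibition of HNF4 dimerization, run alongside a screen for blockers of ABHD5–perilipin-5 interaction; split luciferase complementation of HNF4 fusion proteins in cell lysate measuring dimerization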
T1 sequence (P41235 whole entry): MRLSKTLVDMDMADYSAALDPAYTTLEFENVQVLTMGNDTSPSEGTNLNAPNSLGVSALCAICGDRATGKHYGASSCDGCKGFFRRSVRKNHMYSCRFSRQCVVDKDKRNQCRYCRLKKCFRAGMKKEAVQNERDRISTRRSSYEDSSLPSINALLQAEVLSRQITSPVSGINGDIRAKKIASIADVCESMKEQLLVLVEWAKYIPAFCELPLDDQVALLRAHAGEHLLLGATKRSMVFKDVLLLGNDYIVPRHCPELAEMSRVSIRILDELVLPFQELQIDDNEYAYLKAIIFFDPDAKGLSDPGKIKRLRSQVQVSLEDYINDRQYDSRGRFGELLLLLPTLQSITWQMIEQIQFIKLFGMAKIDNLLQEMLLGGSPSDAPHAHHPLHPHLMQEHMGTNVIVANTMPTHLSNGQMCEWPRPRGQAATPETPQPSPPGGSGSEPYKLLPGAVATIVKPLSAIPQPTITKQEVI

[2] = inhibitors of clade B AD8 Env fusion, dose response, cell-based, cherry-pick (AID 652062); assay type: functional;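 note: luciferase signal from cell-cell fusion driven by HIV-1 clade B AD8 Env; potency is for inhibitors of fusion seen as a drop in luminescence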
[3] = inhibitors of HIV Env-driven cell fusion, dose response, cherry-pick (AID 652057); assay type: functional, cell-based
[4] = ZM109 Env clade C HIV-1 fusion inhibitors, dose response, HeLa effector, CEM target cells, luciferase, cherry-pick (AID 652058); assay type: functional, cell-based
[5] = target: T2, DNA repair and recombination protein RAD54-like (Homo sapiens, UniProt Q92698); test: inhibitors of human RAD54 branch migration, confirmation, biochemical, fluorescence, cherry-picked samples, dose series (AID 651657); assay type: functional
T2 sequence (Q92698 whole entry): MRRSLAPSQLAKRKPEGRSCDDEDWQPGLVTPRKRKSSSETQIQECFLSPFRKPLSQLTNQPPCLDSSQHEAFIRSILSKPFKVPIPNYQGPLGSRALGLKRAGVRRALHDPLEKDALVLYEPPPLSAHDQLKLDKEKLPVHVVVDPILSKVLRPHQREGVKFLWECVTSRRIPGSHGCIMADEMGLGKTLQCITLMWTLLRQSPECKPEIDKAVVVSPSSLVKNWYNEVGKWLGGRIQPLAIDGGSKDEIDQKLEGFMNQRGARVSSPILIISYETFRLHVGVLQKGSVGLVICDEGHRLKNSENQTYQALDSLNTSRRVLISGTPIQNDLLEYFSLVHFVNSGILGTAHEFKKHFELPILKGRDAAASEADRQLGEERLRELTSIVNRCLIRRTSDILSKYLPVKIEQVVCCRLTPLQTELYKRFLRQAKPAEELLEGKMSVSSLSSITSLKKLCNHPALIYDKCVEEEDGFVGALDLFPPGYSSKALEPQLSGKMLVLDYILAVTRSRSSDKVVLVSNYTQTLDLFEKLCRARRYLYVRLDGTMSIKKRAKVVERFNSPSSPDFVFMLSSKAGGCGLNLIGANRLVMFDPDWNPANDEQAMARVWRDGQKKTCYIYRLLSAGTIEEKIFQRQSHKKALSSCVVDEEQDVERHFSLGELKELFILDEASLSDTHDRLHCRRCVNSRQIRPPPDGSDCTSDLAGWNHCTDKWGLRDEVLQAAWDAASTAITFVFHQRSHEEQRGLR

cells [6] = assay type: functional, cell-based
[7] = target: T3, Trace amine-associated receptor 1 (Homo sapiens, UniProt Q96RJ0); test: Counterscreen for agonists of the human trace amine associated receptor 1 (hTAAR1): Fluorescence-based cell-based high throughput dose response assay to identify hTAAR1 agonist that also desensitize TAAR1 receptor response.; assay type: functional
T3 sequence (Q96RJ0 whole entry): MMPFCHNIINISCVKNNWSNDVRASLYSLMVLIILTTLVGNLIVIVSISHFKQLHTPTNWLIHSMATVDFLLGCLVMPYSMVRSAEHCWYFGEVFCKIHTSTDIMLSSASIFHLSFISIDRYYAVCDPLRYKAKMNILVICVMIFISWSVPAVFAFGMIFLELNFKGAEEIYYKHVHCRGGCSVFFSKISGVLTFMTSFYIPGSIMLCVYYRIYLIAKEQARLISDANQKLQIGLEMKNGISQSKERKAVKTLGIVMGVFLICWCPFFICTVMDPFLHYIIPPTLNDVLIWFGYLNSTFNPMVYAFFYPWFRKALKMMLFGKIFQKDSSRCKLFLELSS

cells [8] = assay type: functional, cell-based; remark: listed apart in the source
[9] = target: T3, Trace amine-associated receptor 1; test: Fluorescence-based cell-based high throughput dose response assay to identify agonists of the human trace amine associated receptor 1 (TAAR1).; assay type: functional
HeLa = test: HeLa cell cytotoxicity, dose response, cytotoxicity control, ATP luminescence, cherry-pick samples (AID 687004); assay type: functional, cell-based; conditions: Homo sapiens
Orexin receptor type 2 [10] = target: T4, Orexin receptor type 2 (Homo sapiens, UniProt O43614); test: Counterscreen assay for antagonists of the orexin 1 receptor (OX1R; HCRTR1): Fluorescence-based cell-based dose response assay for antagonists of the orexin 2 receptor (OX2R; HCRTR2), run by assay provider.; assay type: functional
T4 sequence (O43614 whole entry): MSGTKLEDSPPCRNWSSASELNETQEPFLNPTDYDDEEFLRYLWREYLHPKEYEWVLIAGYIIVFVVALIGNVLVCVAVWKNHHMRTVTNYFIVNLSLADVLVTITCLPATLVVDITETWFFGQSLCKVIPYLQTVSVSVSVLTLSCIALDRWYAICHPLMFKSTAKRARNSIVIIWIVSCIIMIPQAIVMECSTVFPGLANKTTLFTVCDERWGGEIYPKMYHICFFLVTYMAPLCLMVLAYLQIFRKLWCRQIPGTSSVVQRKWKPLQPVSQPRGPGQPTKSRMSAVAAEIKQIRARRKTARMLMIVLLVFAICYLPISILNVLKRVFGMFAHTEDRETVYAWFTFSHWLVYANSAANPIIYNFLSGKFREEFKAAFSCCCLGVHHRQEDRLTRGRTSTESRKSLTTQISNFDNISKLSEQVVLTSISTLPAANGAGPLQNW

[11] = target: T5, Orexin/Hypocretin receptor type 1 (Homo sapiens, UniProt O43613); test: Homogeneous Time Resolved Fluorescence (HTRF)-based cell-based high throughput dose response assay for antagonists of the orexin 1 receptor (OX1R; HCRTR1). [Related pubchem assays (depositor defined):AID434989, AID435008, AID463079, AID485270, AID492963, AID492964, AID492965, AID493232, AID504717, AID504718]; assay type: functional
T5 sequence (O43613 whole entry): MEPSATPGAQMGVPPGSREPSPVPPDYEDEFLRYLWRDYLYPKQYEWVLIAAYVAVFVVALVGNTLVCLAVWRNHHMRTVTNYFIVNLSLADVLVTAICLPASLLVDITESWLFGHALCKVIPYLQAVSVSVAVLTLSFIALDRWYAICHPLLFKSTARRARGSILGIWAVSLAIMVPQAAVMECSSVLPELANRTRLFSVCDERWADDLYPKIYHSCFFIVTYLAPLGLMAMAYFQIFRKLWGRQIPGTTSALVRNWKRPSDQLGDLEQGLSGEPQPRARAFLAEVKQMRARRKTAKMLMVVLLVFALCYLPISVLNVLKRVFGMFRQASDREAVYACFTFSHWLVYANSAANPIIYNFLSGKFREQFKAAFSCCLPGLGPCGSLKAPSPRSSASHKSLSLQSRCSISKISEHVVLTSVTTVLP

[12] = Counterscreen for antagonists of the orexin 1 receptor (OX1R; HCRTR1): Fluorescence-based cell-based high throughput dose response assay to identify antagonists of the parental CHO cell line. [Related pubchem assays (depositor defined):AID434989, AID435008, AID463079, AID485270, AID492963, AID492964, AID492965, AID493232, AID504699, AID504701]; assay type: functional
[13] = target: T5, Orexin/Hypocretin receptor type 1; test: Fluorescence-based cell-based high throughput dose response assay for antagonists of the orexin 1 receptor (OX1R; HCRTR1). [Related pubchem assays (depositor defined):AID434989, AID435008, AID463079, AID485270, AID492963, AID492964, AID492965, AID493232, AID504717, AID504718]; assay type: functional
CHO-K1 = test: Counterscreen for antagonists of the orexin 1 receptor (OX1R; HCRTR1): Homogeneous time resolved fluorescence (HTRF)-based cell-based dose response assay to identify antagonists of the parental CHO-K1 cell line. [Related pubchem assays (depositor defined):AID434989, AID435008, AID463079, AID485270, AID492963, AID492964, AID492965, AID493232, AID504699, AID504701]; assay type: functional; conditions: Cricetulus griseus;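 note: potency for inhibition of ATP-stimulated IP1 production as antagonists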
Orexin receptor type 2 [14] = target: T4, Orexin receptor type 2; test: Counterscreen assay for antagonists of the orexin 1 receptor (OX1R; HCRTR1): Homogeneous Time Resolved Fluorescence (HTRF)-based cell-based dose response assay for antagonists of the orexin 2 receptor (OX2R; HCRTR2), run by assay provider.; assay type: functional
Galanin receptor type 3 = target: T6, Galanin receptor type 3 (Homo sapiens, UniProt O60755); test: Fluorescence-based cell-based primary high throughput dose response assay to identify antagonists of the Galanin Receptor 3 (GalR3).; assay type: functional
T6 sequence (O60755 whole entry): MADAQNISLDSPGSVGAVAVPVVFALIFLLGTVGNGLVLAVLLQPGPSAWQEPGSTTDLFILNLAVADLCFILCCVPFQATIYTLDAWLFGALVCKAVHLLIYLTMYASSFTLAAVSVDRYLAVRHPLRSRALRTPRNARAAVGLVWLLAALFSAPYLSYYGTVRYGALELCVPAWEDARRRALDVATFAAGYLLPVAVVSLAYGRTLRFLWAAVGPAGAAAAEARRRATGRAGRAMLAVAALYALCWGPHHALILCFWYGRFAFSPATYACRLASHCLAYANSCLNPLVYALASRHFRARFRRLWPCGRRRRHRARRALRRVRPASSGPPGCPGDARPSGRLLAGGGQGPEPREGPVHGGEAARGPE

cells [15] = assay type: functional, cell-based; conditions: HEK-CNG

Cc1c(C(=O)NCc2cccnc2)oc2ccc(S(=O)(=O)N3CC(C)CC(C)C3)cc12 (stereo not drawn)
AC50 (Vero): 32.4 µM (active)

O=C(CNC(=O)c1ccccc1F)NNC(=O)c1ccccc1O
IC50 (Albumin): > 94.1 µM (inactive)

Cc1ccc(O)c(C(=O)C=Cc2ccccc2)c1
IC50 [1]: 4 µM (active)

C[C@H]1CN([C@@H](C)CO)C(=O)Cc2cc(NC(=O)Nc3ccccc3)ccc2O[C@H]1CN(C)S(=O)(=O)c1cccs1
AC50 [2]: 8.52 µM (active)
AC50 [3]: 1.36 µM (active)
AC50 [4]: 1.55 µM (active)

CCN1CCN(CCCNC(=O)c2cc3c(O)nc4ccccc4c3s2)CC1
AC50 [5]: 46.5 µM (active)

Cc1ccc(S(=O)(=O)N2CCC(C(=O)NNC(=O)c3ccccc3O)CC2)cc1C
IC50 (Albumin): > 94.1 µM (inactive)

c1c[nH]c(CN2CCN(Cc3ncc[nH]3)CC2)n1
AC50 [5]: 63.3 µM (active)

COc1ccc(/C=N/CC2COc3ccccc3O2)cc1OC (stereo not drawn)
EC50 (cells [6]): > 29.9 µM (inactive)
IC50 [7]: 18.9 µM (inactive)
IC50 (cells [8]): > 29.9 µM (inactive)
EC50 [9]: 1.44 µM (active)

CCCNC(=O)C[C@@H]1CC[C@@H]2[C@H](COc3ccc(NC(=O)CCC)cc3C(=O)N2C)O1
AC50 (HeLa): 9.9 µM (active)

N#Cc1ccc(C(C(=O)Nc2ccc3c(c2)OCCO3)n2c(=O)c(-c3ccco3)nc3ccccc32)cc1 (stereo not drawn)
IC50 [1]: 9.98 µM (active)

Cc1noc(C)c1COC(=O)c1ccc2c(c1)S(=O)(=O)c1ccccc1C2=O
IC50 (Orexin receptor type 2 [10]): > 88.8 µM (inactive)
IC50 [11]: 1.2 µM (active)
IC50 [12]: > 49.7 µM (inactive)
IC50 [13]: 4 µM (active)
IC50 (CHO-K1): 18.5 µM (inactive)
IC50 (Orexin receptor type 2 [14]): > 50 µM (inactive)

Cc1cc(C)n2nc(-c3cccc(Br)c3)cc2n1
IC50 (Orexin receptor type 2 [10]): > 88.8 µM (inactive)
IC50 [11]: 2.05 µM (active)
IC50 [12]: > 49.7 µM (inactive)
IC50 [13]: 9.69 µM (active)
IC50 (CHO-K1): > 66.2 µM (inactive)
IC50 (Orexin receptor type 2 [14]): > 50 µM (inactive)

Cc1nnc(SCC(=O)NCCC2=CCCCC2)nc1O
EC50 (cells [6]): > 29.9 µM (inactive)
IC50 [7]: 7.22 µM (active)
IC50 (cells [8]): > 29.9 µM (inactive)
EC50 [9]: 1.25 µM (active)

CC(=C/c1ccccc1)/C=C1/SC(N2CCOCC2)=NC1=O
IC50 (Orexin receptor type 2 [10]): > 88.8 µM (inactive)
IC50 [11]: 0.51 µM (active)
IC50 [12]: > 49.8 µM (inactive)
IC50 [13]: 3.82 µM (active)
IC50 (CHO-K1): 40.7 µM (inactive)
IC50 (Orexin receptor type 2 [14]): 26 µM (inactive)

C#CCOC(=O)CCC(=O)NCCc1ccccc1
EC50 (cells [6]): > 29.9 µM (inactive)
IC50 [7]: 1.66 µM (active)
IC50 (cells [8]): > 29.9 µM (inactive)
EC50 [9]: 3.07 µM (active)

N#Cc1nc(N2CCCC2)nc(N2CCCC2)n1
IC50 (Galanin receptor type 3): 1.81 µM (active)
EC50 (cells [15]): > 29.9 µM (inactive)
